Assays:
[1] = tested on: 229E-GFP; test: microbe, parasite or virus in culture; type: cell-based, human coronavirus; details: for EC90 / EC50: 72 h; for EC50: read-out: ECso; for infection by 229E-GFP: result in words, micromolar concentrations
[2] = tested on: SARS-CoV-2; test: SARS-CoV-2 cell monolayer protection assay; type: cell-based, SARS-CoV-2 strain NL/2020; details: Severe acute respiratory syndrome coronavirus 2, Vero C1008, 72 h; for EC100: read-out: concentration protecting completely / around 100% of the cell monolayer
[3] = tested on: SARS-CoV-2; type: cell-based, SARS-CoV-2 strain NL/2020
[4] = tested on: SARS-CoV-2; test: Intracellular viral RNA quantitation (RT-qPCR), with time of addition; type: cell-based, SARS-CoV-2 strain NL/2020
[5] = tested on: retroviral vectors pseudotyped with SARS-CoV-2 Spike protein (SARS2pp); test: microbe, parasite or virus in culture; type: cell-based; details: Severe acute respiratory syndrome coronavirus 2, Vero C1008, 48 h
[6] = tested on: Vero-E6 cells; details: uninfected Vero-E6 cells, 200 to 3.125 µM, crystal violet
[7] = in vitro; details: human, huh7-lunet#3 cells

CC[C@H]1OC(=O)[C@H](C)[C@@H](O[C@H]2C[C@@](C)(OC)[C@@H](O)[C@H](C)O2)[C@H](C)[C@@H](O[C@@H]2O[C@H](C)C[C@H](N(C)C)[C@H]2O)[C@](C)(O)C[C@@H](C)CN(C)[C@H](C)[C@@H](O)[C@]1(C)O [Azithromycin]
EC90 [1]: 18.8 ± 2.5 µM
EC50 [1]: 6.1 ± 2.4 µM
infection by 229E-GFP [1]: blocked viral infection
EC50 [2]: 75 µM
EC100 [2]: 200 µM
progeny virus production (TCID50) [3]: undetectable levels
viral RNA accumulation [4]: significantly reduced viral RNA accumulation in a dose dependent manner
EC50 [5]: ~30 µM
cytotoxicity in Vero-E6 cells [6]: not toxic at any of the tested concentrations
CC50 at 72 h [7]: > 50 µM

CO/N=C(\C(=O)N[C@@H]1C(=O)N2C(C(=O)O)=C(COC(N)=O)CS[C@H]12)c1ccco1 [Cefuroxime]
EC90 [1]: > 50 µM
EC50 [1]: > 50 µM
infection by 229E-GFP [1]: not significantly affected
CC50 at 72 h [7]: > 50 µM

CC[C@H]1OC(=O)[C@H](C)[C@@H](O[C@H]2C[C@@](C)(OC)[C@@H](O)[C@H](C)O2)[C@H](C)[C@@H](O[C@@H]2O[C@H](C)C[C@H](N(C)C)[C@H]2O)[C@](C)(OC)C[C@@H](C)C(=O)[C@H](C)[C@@H](O)[C@]1(C)O [Clarithromycin]
EC90 [1]: 46.3 ± 4.8 µM
EC50 [1]: 17.3 ± 9.2 µM
infection by 229E-GFP [1]: blocked viral infection
EC50 [2]: 60 µM
EC100 [2]: 100 µM
progeny virus production (TCID50) [3]: undetectable levels
viral RNA accumulation [4]: significantly reduced viral RNA accumulation in a dose dependent manner
EC50 [5]: ~30 µM
CC50 at 72 h [7]: > 50 µM

CC[C@H]1OC(=O)[C@H](C)[C@@H](O[C@H]2C[C@@](C)(OC)[C@@H](O)[C@H](C)O2)[C@H](C)[C@@H](O[C@@H]2O[C@H](C)C[C@H](N(C)C)[C@H]2O)[C@](C)(O)C[C@@H](C)C(=O)[C@H](C)[C@@H](O)[C@]1(C)O [Erithromycin, Erythromycin]
EC90 [1]: > 50 µM
EC50 [1]: > 50 µM
infection by 229E-GFP [1]: not significantly affected
CC50 at 72 h [7]: > 50 µM

CC[C@H]1OC(=O)[C@H](C)[C@@H](O[C@H]2C[C@@](C)(OC)[C@@H](O)[C@H](C)O2)[C@H](C)[C@@H](O[C@@H]2O[C@H](C)C[C@H](N(C)C)[C@H]2O)[C@](C)(O)C[C@@H](C)/C(=N\OC)[C@H](C)[C@@H](O)[C@]1(C)O [Lexithromycin]
EC90 [1]: 16.3 ± 6 µM
EC50 [1]: 3 ± 1.4 µM
infection by 229E-GFP [1]: blocked viral infection
EC50 [2]: 25 µM
EC100 [2]: 50 µM
progeny virus production (TCID50) [3]: undetectable levels
viral RNA accumulation [4]: significantly reduced viral RNA accumulation in a dose dependent manner
EC50 [5]: ~18 µM
cytotoxicity in Vero-E6 cells [6]: the most toxic compound
CC50 at 72 h [7]: > 50 µM

— patent EP3932409A1 (priority 2020, dated 2022)
